Each structure is given as a SMILES string. “And” between values parts separate entries of the source, which are not always exact repeats. Equal entries are not always repeated. Where two headings read alike, the source gives them in different places.

By EC50 is commonly meant the concentration at which the effect is half-maximal. Lower therefore signals higher potency in that assay.

Series [1] deals with KV7.2/3 channel (Homo sapiens, UniProt O43525+O43526). Kind of series: KV7.2/3 channel opening assay (thallium-sensitive fluorescence). The series is classed as cell-based. The conditions noted are these: for KV7.2/3 channel opening activity (in words): inactive = no channel opening activity detected up to a concentration of 10 μM. The protocol: To evaluate the biological activity, the synthesized analogues were tested on HEK293 cells overexpressing the KV7.2/3 channel. The measurement was carried out in a fluorescence-based assay in which a thallium-sensitive dye generated the fluorescence signal. Due to its similarity to potassium, thallium can also pass through KV7 channels. The intensity of the fluorescence signal correlates with the amount of intracellular thallium and thus with the ability of the compounds to open KV7 channels. To determine the potency, the fluorescence intensity was measured as a function of the compound concentration. The efficacy was determined relative to the maximum fluorescence signal induced by flupirtine. For a summary of the activity data, see Table 2.
The cell culture of the KV7.2/3 transfected HEK293 cells (HEK293 KCNQ2/3 cells from SB Drug Discovery, Glasgow, UK) used for the assay and the processing of the obtained data were performed as described in earlier work.[27],[29] Briefly, 60,000 cells/well were seeded into 96-well microtiter plates for fluorescence-based assays (4titude Vision Plate Black 96-Well microtiter plates from ThermoScientic) and incubated for 24 h. After incubation, the medium was changed to 200 μL/well loading buffer containing 5 mmol/L probenecid and incubated for 1 h at room temperature. Subsequently, the test compounds dissolved in DMSO were added to the wells to the desired concentrations and further incubated for 30 min. As a control, the loading buffer with a DMSO concentration corresponding to the substance samples (1% (V/V)) was used. Fluorescence measurements were performed on the Infinite F200 Pro plate reader (Tecan) set at […]/emission wavelengths of 485 and 535 nm, respectively. After measuring the background fluorescence (baseline) for 20 s, a stimulus buffer (25 mmol/L K^+, 15 mmol/L Tl^+) was added just before the fluorescence of each well was measured.
The calculations to obtain dose–response curves were performed in the same manner as in previous investigations.[27],[29] Briefly, the fluorescence intensity was normalized with the baseline signal (F/F0) at each time of signal acquisition. To obtain the corrected negative control, a value of 1 was subtracted from the normalized value of the negative control. Subsequently, the value of the corrected negative control was subtracted from the maximum (corr. F/F0) value of a compound in a defined concentration (corr. ΔF/F0) and then plotted against the logarithmic concentration. The EC50 value was calculated as relative values with GraphPad Prism 6 (La Jolla, CA, USA), that is, the inflection points of the sigmoidal curves. The Emax value, the maximum response, indicates the intrinsic activity of a compound. This value was determined relative to flupirtine (1), where the maximum corr. ΔF/F0 value of flupirtine (1) was defined as 100%. The EC50 and Emax value of a compound is the mean of at least three independent experiments ± standard deviation (SD).

For series [2], the system named is TAMH cells. In words: MTT cell viability assay, TAMH cells. To be noted: TAMH cells, MTT assay, 24 h exposure; for LD25: 25% reduction of viability; for LD50: 50% reduction of viability. The text has this:
(§1) In addition to the activity, basic toxicological properties of the newly synthesized compounds were also investigated by using the 3-(4,5-dimethylthiazol-2-yl)-2,5-diphenyltetrazolium bromide (MTT) cell viability assay on mouse TAMH and human HEP-G2 hepatic cell lines (see Table 2). Both cell lines are established for the evaluation of hepatotoxicity.[42],[43]
(§2) The culturing of the mouse liver TAMH and human liver cancer HEP-G2 cell lines and the MTT assay used to evaluate cell viability were carried out as previously described elsewhere in detail.[27],[29] […] The medium in the wells was then replaced with the medium containing the compounds. Control wells contained an equivalent number of cells and 1% (v/v) DMSO. Wells without cells were used to determine the background optical density (OD) and were treated as the control wells. After 24 or 48 h of incubation with the compound, the respective medium was replaced with a fresh medium supplemented with 10% (v/v) of a 2.5 mg/mL solution of MTT. The plates were incubated for 4 h. Then, the culture medium was carefully aspirated off and 50 μL of DMSO was added to each well to dissolve the formazan crystals. The ODs of each well were measured at λ = 570 nm with a SpectraMax 190 microplate reader.
(§3) The calculated T/Ccorr. values were plotted against the log(concentration). The LD50 and LD25 values were determined by using GraphPad Prism 6. […] The values are given as the mean with SD of at least three independent experiments.
(In general: Formazan colour is commonly taken as a measure of viable cells.)

In series [3] the test system is HEP-G2 cells. Kind of series: MTT cell viability assay, HEP-G2 cells. To be noted: HEP-G2 cells, MTT assay, 24 h exposure; for LD25: 25% reduction of viability; for LD50: 50% reduction of viability.
Text: as §1, §2, §3

The nature of series [4]: log D7.4 estimation by HPLC-based method. The conditions noted are these: HPLC, Phenomenex Luna 5 μm Phenyl-Hexyl column. In kind it is physicochemical. As to the method:
The log D7.4 values were estimated using a common HPLC-based method in accordance with guideline OPPTS 830.7570 of the United States Environmental Protection Agency (EPA). The HPLC measurements were performed with a Phenomenex Luna 5 μm Phenyl-Hexyl 100 Å column (150 × 4.6 mm). […]. Uracil was used to measure the unretained peak time. To obtain a calibration function, the logarithm of the capacity factors for the reference substances was then plotted against the corresponding log P values taken from the mentioned guideline, which are equivalent to the log D7.4 values for non-ionizable compounds like the reference substances used for calibration. With this calibration function, it was possible to estimate the log D7.4 value from the corresponding retention time for each compound to be tested. For the measurement, 2 mg of the reference substances was each dissolved in 1 mL of methanol. A reference mixture was then obtained by combining 50 μL of each reference solution. The reference mixture was measured before and after the substances to be tested. The mean value from both measurements was used for the calibration line. The substances to be tested were injected as a solution in methanol (2 mg/mL), and the retention time was determined as the mean value from two measurements.

Where [5] appears, read: pH 7.4, HPLC, calibration A1, read-out: logD7.4.
[6] abbreviates: pH 7.4, HPLC, calibration B1, read-out: logD7.4.
The mark [7] stands for this setting: pH 7.4, HPLC, mean of two calibrations, read-out: logD7.4 (mean).
Where [8] appears, read: pH 7.4, estimated by HPLC-based method, pH 7.4, read-out: log D7.4.
[9] abbreviates: HEK293 cells overexpressing KV7.2/3, footnote e.
Where [10] appears, read: pH 7.4, HPLC, calibration C, read-out: logD7.4.
The mark [11] stands for this setting: pH 7.4, HPLC, calibration D, read-out: logD7.4.

KV7.2/3 channel, sequence (O43526 whole entry): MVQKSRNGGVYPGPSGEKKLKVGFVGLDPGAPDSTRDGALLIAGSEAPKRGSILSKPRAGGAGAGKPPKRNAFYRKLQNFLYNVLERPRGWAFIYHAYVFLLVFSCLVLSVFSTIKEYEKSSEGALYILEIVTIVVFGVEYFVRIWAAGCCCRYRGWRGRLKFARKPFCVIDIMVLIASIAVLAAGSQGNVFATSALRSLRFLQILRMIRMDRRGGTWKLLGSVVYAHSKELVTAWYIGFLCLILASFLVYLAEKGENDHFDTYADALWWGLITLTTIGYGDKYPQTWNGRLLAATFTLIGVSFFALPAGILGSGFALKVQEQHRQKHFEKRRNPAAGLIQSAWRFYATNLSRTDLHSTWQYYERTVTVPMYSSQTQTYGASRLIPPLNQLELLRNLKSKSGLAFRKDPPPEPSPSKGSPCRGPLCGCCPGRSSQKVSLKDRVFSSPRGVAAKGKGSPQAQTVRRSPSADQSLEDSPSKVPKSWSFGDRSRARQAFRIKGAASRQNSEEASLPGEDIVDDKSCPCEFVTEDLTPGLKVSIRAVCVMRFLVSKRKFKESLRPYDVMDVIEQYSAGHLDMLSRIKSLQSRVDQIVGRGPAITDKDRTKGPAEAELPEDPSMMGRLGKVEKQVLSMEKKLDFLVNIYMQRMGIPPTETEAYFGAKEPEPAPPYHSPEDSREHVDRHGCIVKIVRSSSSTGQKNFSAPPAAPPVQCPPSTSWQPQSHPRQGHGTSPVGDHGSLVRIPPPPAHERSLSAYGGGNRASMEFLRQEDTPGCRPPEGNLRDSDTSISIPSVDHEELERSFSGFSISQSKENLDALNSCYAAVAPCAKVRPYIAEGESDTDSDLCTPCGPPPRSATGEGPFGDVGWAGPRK
KV7.2/3 channel, sequence (O43525 whole entry): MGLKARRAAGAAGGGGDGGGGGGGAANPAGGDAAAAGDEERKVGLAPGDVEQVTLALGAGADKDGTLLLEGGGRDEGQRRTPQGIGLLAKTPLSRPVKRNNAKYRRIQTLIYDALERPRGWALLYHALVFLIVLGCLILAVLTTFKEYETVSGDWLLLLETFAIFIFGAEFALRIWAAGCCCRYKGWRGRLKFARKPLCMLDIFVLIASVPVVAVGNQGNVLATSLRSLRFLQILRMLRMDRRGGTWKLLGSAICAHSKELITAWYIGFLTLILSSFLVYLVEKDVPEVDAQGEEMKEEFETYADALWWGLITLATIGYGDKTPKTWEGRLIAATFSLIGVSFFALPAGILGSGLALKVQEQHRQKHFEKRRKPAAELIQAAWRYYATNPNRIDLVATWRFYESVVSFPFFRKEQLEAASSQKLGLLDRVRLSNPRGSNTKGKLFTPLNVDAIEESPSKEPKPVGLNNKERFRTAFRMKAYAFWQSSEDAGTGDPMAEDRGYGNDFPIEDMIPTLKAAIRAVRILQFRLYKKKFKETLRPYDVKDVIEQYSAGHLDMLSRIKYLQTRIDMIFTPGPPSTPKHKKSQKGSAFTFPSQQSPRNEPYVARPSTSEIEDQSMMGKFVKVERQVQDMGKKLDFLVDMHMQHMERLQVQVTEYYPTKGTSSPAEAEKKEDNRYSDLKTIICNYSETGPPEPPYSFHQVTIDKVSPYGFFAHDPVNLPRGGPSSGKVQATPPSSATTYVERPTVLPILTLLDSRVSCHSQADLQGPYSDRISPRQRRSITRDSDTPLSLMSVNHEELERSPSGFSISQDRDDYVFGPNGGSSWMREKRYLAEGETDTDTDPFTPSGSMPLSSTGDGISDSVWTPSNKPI

In the case of `CCCCNC(=O)c1c(C)cc(NCc2ccc(F)cc2)nc1OC` [36a, N-Butyl-6-[(4-fluorobenzyl)amino]-2-methoxy-4-methylnicotinamide], the “loss of potency (factor)” value in series [1] (36a compared with 36b) is 11. This compound also gave an EC50 in series [1] (HEK293 cells overexpressing KV7.2/3, concentration for half-maximal channel opening, mean ± SD, ≥3 determinations) of 3.51 ± 0.724 µM. Further, in series [1] (HEK293 cells overexpressing KV7.2/3, relative to maximum signal of flupirtine (=100%)), the efficacy is 65% and 65 ± 9%. The LD25 in series [2] worked out at 17 ± 1 µM; in series [3] it was 24 ± 1 µM. The LD50 in series [2] and in series [3] was over 63 µM each time. For the same compound, the chromatographic logD in series [4] (setting [5]) was 3.7; in series [4] (setting [6]), 3.66; in series [4] (setting [7]), 3.7; in series [4] (setting [8]), 3.7.

In the case of `COc1cc(NCc2ccc(F)cc2)ccc1C(=O)NCC(C)C` [28a, 4-[(4-Fluorobenzyl)amino]-N-isobutyl-2-methoxybenzamide], the EC50 in series [1] (setting [9]) was over 10 µM. In addition, in series [1], the “KV7.2/3 channel opening activity (in words)” value was “inactive”. Also, the LD25 is 43 ± 27 µM in series [2] and 31 ± 13 µM in series [3]. Also, the LD50 in series [2] was over 63 µM; in series [3] it was 42 ± 7 µM. Besides, the chromatographic logD in series [4] (setting [10]) is 3.79; in series [4] (setting [11]) it was 3.79; in series [4] (setting [7]), 3.8; in series [4] (setting [8]), 3.8.

On to `Cc1cc(NCc2ccc(F)cc2)nc(N2CCOCC2)c1CNC(=O)OCC(C)C` [compound 66, Isobutyl ({6-[(4-Fluorobenzyl)amino]-4-methyl-2-morpholinopyridin-3-yl}methyl)carbamate], for which the EC50 in series [1] (setting [9]) is over 10 µM. The “KV7.2/3 channel opening activity (in words)” value in series [1] was “inactive”. The LD25 in series [2] worked out at 52 ± 61 µM; in series [3], 24 ± 27 µM. The LD50 in series [2] and in series [3] was over 125 µM each time. The chromatographic logD is 4.75 in series [4] (pH 7.4, HPLC, calibration A2, read-out: logD7.4); 4.75 in series [4] (pH 7.4, HPLC, calibration B2, read-out: logD7.4); 4.8 in series [4] (setting [7]); 4.8 in series [4] (setting [8]).

Regarding `COc1cc(NCc2ccc(F)cc2)ccc1C(=O)NCc1ccc(F)cc1` [28b, N-(4-Fluorobenzyl)-4-[(4-fluorobenzyl)amino]-2-methoxybenzamide], the EC50 in series [1] (setting [9]) was over 10 µM. Also, the “KV7.2/3 channel opening activity (in words)” value in series [1] is “inactive”. The LD25 in series [2] and in series [3] was over 8 µM throughout. The LD50 in series [2] and in series [3] was over 8 µM each time. For the same compound, the chromatographic logD in series [4] (setting [10]) is 4.28; in series [4] (setting [11]), 4.29; in series [4] (setting [7]), 4.3; in series [4] (setting [8]), 4.3.

As for `CCCCNC(=O)c1ccc(NCc2ccc(F)cc2)nc1N` [compound 21, 2-Amino-N-butyl-6-[(4-fluorobenzyl)amino]nicotinamide], the EC50 in series [1] (setting [9]) was over 10 µM. In addition, the “KV7.2/3 channel opening activity (in words)” value in series [1] is “inactive”. Also, the figures for the LD25 in series [2] and in series [3] were 145 ± 7 µM and 148 ± 11 µM, respectively. Besides, the LD50 in series [2] is 149 ± 7 µM; in series [3], 149 ± 11 µM. In addition, the chromatographic logD in series [4] (setting [5]) was 2.88; in series [4] (setting [6]), 2.86; in series [4] (setting [7]) it was 2.9; in series [4] (setting [8]), 2.9.

The compound `CC(C)CNC(=O)c1ccc(NCc2ccc(F)cc2)cc1N` [compound 17, 2-Amino-4-[(4-fluorobenzyl)amino]-N-isobutylbenzamide] showed an EC50 in series [1] (setting [9]) of over 10 µM. Moreover, the “KV7.2/3 channel opening activity (in words)” value in series [1] was “inactive”. In addition, the LD25 in series [2] was over 125 µM; in series [3], 56 ± 40 µM. The LD50 in series [2] and in series [3] was over 125 µM each time. Moreover, the chromatographic logD was 2.75 in series [4] (setting [10]), 2.75 in series [4] (setting [11]), 2.7 in series [4] (setting [7]) and 2.7 in series [4] (setting [8]).

The compound `Cc1cc(N2CCOCC2)nc(N2CCOCC2)c1CNC(=O)Cc1cc(F)cc(F)c1` [55b, 2-(3,5-Difluorophenyl)-N-[(4-methyl-2,6-dimorpholinopyridin-3-yl)methyl]acetamide] gave a 50% effective concentration (EC50) in series [1] (setting [9]) of over 10 µM. Besides, in series [1], the “KV7.2/3 channel opening activity (in words)” value was “inactive”. For the same compound, the LD25 was determined as 24 ± 5 µM in series [2] and 20 ± 7 µM in series [3]. Besides, the LD50 in series [2] and in series [3] was over 250 µM throughout. The chromatographic logD in series [4] (setting [5]) was 3.52; in series [4] (setting [6]), 3.53; in series [4] (setting [7]), 3.5; in series [4] (setting [8]), 3.5.

Consider `CCCNC(=O)c1ccc(NCc2ccc(F)cc2)cc1CC.Cl` [compound 47, 2-Ethyl-4-[(4-fluorobenzyl)amino]-N-propylbenzamide hydrochloride], for which the EC50 in series [1] (setting [9]) was over 10 µM. Besides, the “KV7.2/3 channel opening activity (in words)” value in series [1] is recorded as “did not result in any improvement in terms of activity”. In addition, the LD50 was over 125 µM in series [2] and 77 ± 15 µM in series [3]. Moreover, the LD25 in series [3] turned out to be 60 ± 9 µM. In addition, the chromatographic logD in series [4] (setting [10]) was 3.24; in series [4] (setting [11]) it was 3.23; in series [4] (setting [7]) it was 3.2; in series [4] (setting [8]), 3.2.
